Laboratory results reported in patent publication CN111004186A, “一种小分子荧光探针及其制备方法与应用” (Wenzhou Medical University, priority 2019, dated 2020).

Tests used:
zebrafish (斑马鱼) = assay: Fluorescence bioimaging of ClO- in zebrafish; format: in vivo
[1] = Fluorescence titration of the probe with ClO-; conditions: excitation 440 nm
[2] = Fluorescence selectivity of the probe for ClO- over other ions/species
[3] = UV-vis absorption spectra of the probe on addition of ClO-; conditions: aqueous solution, probe 10 μM and 5 μM, ClO- added
[4] = test system: MRC-5 cells (人胚肺细胞(MRC-5)); assay: Fluorescence bioimaging of ClO- in MRC-5 cells; format: cell-based, human

O=C1NC(=S)NC(=O)C1=Cc1ccc2cc(O)ccc2c1 [小分子探针]
red fluorescence in head and abdomen (zebrafish (斑马鱼); 5-day-old zebrafish pretreated with probe, washed three times, then ClO- 6.0 μM): 显着的红色荧光 | red fluorescence in the abdomen (zebrafish (斑马鱼); 5-day-old zebrafish, free probe 2.0 μM, 20 min, without added ClO-): 弱而可见的 红色荧光 | tissue penetration ability (zebrafish (斑马鱼); zebrafish): 高组织穿透能力 | maximum emission ([1]; probe 5 μM in water with ClO-): 535 nm | fluorescence intensity as a function of ClO- concentration ([1]; probe 5 μM in water, 400-700 nm): 随ClO-浓度增加而增强 | fluorescence change with anions/species other than ClO- ([2]; probe 2 μM in EtOH-H2O (v/v=1:10), 1.0 eq SO3 2-, NO, 1O2, ·OH, PBO·, TBHP, DBTP, Cys, GSH, H2O2): 没有产生明显变化 | fluorescence intensity after addition of ClO- ([2]; probe 2 μM in EtOH-H2O (v/v=1:10), ClO- 1.0 eq): 明显 | selectivity for ClO- ([2]; probe 2 μM in EtOH-H2O (v/v=1:10), anions 1.0 eq): 高选择性 | fluorescence change with other ions ([2]; probe mixed with other ions (not hypochlorite)): 荧光基本上不发生变化 | fluorescence intensity on reaction with hypochlorite ion ([2]; probe with hypochlorite ion): 荧光强度变强 | absorption band at 440 nm on addition of ClO- [3]: 逐渐减少 | new absorption peak after addition of ClO- [3]: 515 nm | fluorescence signal in cells ([4]; MRC-5 cells incubated with free probe, without added ClO-): 观察到可见荧光信号 | fluorescence intensity in the red channel ([4]; MRC-5 cells incubated with probe 20 min, then ClO- 6.0 μM, observed immediately): 显着荧光强度
